These are literature values, as cited in patent publication US10172867B2, “Afobazole nanoparticles formulation for enhanced therapeutics” (University of South Florida, priority 2014, dated 2019).

Data set [1] concerns muscarinic receptors. The note with it: Seredenin et al., 2009.
In data set [2] the test system is σ-1 receptor. To be noted: Cuevas et al., 2011.
Data set [3] deals with σ-2 receptor (Homo sapiens, UniProt Q5BJF2). The note with it: Cuevas et al., 2011.
The conditions of data set [4]: in vivo.
Data set [5] deals with in vitro ischemia model. The note with it: Cuevas et al.

σ-2 receptor, sequence (Q5BJF2 whole entry, species assumed): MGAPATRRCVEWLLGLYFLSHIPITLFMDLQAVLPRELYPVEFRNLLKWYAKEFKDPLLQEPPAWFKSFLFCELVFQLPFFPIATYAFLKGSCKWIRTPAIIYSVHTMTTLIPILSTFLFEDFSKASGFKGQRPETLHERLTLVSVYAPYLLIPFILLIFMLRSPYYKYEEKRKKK

Regarding `CCOc1ccc2nc(SCCN3CCOCC3)[nH]c2c1` [Afobazole, 5-ethoxy-2[2-(morpholine)-ethylthio]benzimidazole], in data set [1], the “interaction with muscarinic receptors” value is reported as “does not interact”. Moreover, the σ-1 receptor activity result in data set [2] is “agonist”. Also, the σ-2 receptor activity entry in data set [3] was “agonist”. In addition, in data set [4], the brain penetration entry is listed as “limited brain penetration” and the half-life result is given as “short half-life”. In data set [5] (in vitro ischemia model, 2011), the neuroprotection result is recorded as “provides neuroprotection”. The “ischemia-induced Ca2+ overload” value in data set [5] (via activation of σ-1 receptors, Katnik et al., 2006, 2011a) is on record as “decrease in ischemia-induced Ca^2+ overload”.
